Measurements reported in patent publication US10662225B2, “Backbone cyclized inhibitory peptides of myeloid differentiation factor 88 (MyD88)” (Yissum Research Development Company of the Hebrew …, priority 2016, dated 2020).
Numbered stars: 1 amine (or outer) side, 2 acyl side, 3 side chain; on linkers, the order of the positions; unused ones are H or OH. Bridge positions count the residues as written; N and C are the ends. Square brackets hold non-standard residues; d marks the D form. Peptide text beside a SMILES is read from it. CO = O=C([*:1])[*:2]; Nlys = NCCCCNCC(=O)O

Assays:
[1] = system: MyD88-dependent signaling; assay: Library screen: TNFα production by U937 macrophage cells stimulated with PAM3Csk; format: cell-based, human; conditions: PAM3Csk overnight, peptide concentration estimated 2-4 μM
Description: FIG. 4. Screening results of the peptide library of 16 compounds. Human macrophage U937 cells were stimulated with PAM3csk overnight in the absence or presence of each of the cyclic peptides. Human TNFα levels in the supernatants were determined by ELISA. […].
The backbone cyclic library of 16 compounds synthesized in Example 3 was screened for inhibition of MyD88-dependent signaling through innate immune receptors employing the human macrophage cell line U937. […] The concentration of the cyclic peptides in the library was estimated to be 2-4 μM.

[2] = system: NFκB p65 nuclear translocation; assay: NFκB p65 nuclear translocation in HeLa cells stimulated with TNFα or IL-1β; format: cell-based
Description: FIG. 6. HeLa assay showing specificity of MyD88 inhibition. HeLa cells were stimulated with recombinant TNFα or IL-1β and NFkB localization was determined with anti-p65 conjugated to rhodamine. The percent of cells with nuclear localization was determined and is shown in the bar graphs on the right. 6A: Top row, HeLa cells transduced with control shRNA. Second row, shRNA knock-down of MyD88. 6B: Top row, HeLa cells treated with MyD88 inhibitor linear peptide. Bottom row, HeLa cells treated with scrambled control version of the MyD88 inhibitor linear peptide (SEQ ID NO: 5).
FIG. 7. HeLa assay showing specificity of MyD88 inhibition by 4×4MyDI. HeLa cells were stimulated with recombinant TNFα or IL-1b and NFkB localization was determined with anti-p65 conjugated to rhodamine. The percent of cells with nuclear localization was determined, and is shown in the bar graphs on the right. Top row, HeLa cells with no pre-treatment. Second row, HeLa cells pre-treated for 30 min with the backbone cyclic 4×4MyDI compound.
Lead compounds were further tested in vitro to confirm the specificity of the inhibition. A fluorescence-based in vitro activity assay that determines the degree of activation of the transcription factor NFκB was established. In this assay, cells are treated with either TNFα or IL-1b, both inflammatory cytokines that activate NFκB. Upon activation, the p65 unit of the NFκB transcription factor re-locates from the cytoplasm to the nucleus. Using fluorescently-tagged antibodies to p65, the cytoplasmic vs. nuclear localization of the factor is determined. Importantly, since the signaling of IL-1b, but not TNFα, is dependent on MyD88, this assay can establish the specificity of the inhibition achieved using the lead compounds.
Cells were activated with either IL-1β (the signaling of the IL-1 receptor is dependent on MyD88), or with TNFα (signaling of its receptor is independent of MyD88). The activation was measured by the translocation of NFκB from the cytoplasm to the nucleus. As a positive control, a stable MyD88 knock-down cell line was established using lentiviral encoded shRNA.
Using the same system, when cells were treated with the backbone cyclic peptide 4×4MyDI, activation by IL-1β was blocked, however when treated with TNFα the activation was not inhibited.

[3] = system: T cells responding to the self-antigen MOG35-55; assay: Cytokine response of draining lymph node cells of treated EAE mice to MOG35-55; format: in vivo; conditions: 4 mg/Kg three times per week until day 11; ex vivo restimulation
Description: FIGS. 16A and 16B. inhibition of IFNγ and IL-17 secretion in 4×4MyDI treated mice. C57BL/6 mice were immunized with MOG35-55/CFA and administered pertussis toxin on day zero and after 48 h. Groups of mice were treated with 4×4MyDI at 4 mg/kg from day zero, three times a week, and animals were sacrificed on day 11 after immunization. Control mice were treated with an equal volume of PBS using the same schedule of administration. Single cell suspensions from draining lymph nodes were stimulated with different concentrations of MOG35-55 peptide (SEQ ID NO: 4) for three days and supernatants were collected for analysis of cytokines by ELISA.
Of note, IFNγ and IL-17 are considered pro-inflammatory cytokines that are highly detrimental in the autoimmune process.

[4] = system: NFkB activation; assay: NFkB-luciferase reporter in RAW 264.7 macrophages stimulated with LPS; format: cell-based, mouse; conditions: RAW 264.7 NFkB-luc, 4 hours
Description: FIG. 13. 4×4MyDI and Myr4×4MyDI block NFkB induction in response to LPS stimulation of RAW 264.7 NFkB-luc cells. RAW 264.7 murine macrophages were transfected with an NFkB-luciferase reporter gene and stimulated with LPS in the absence or presence of increasing concentrations of the inhibitors. After 4 hours cells were lysed and luminescence was recorded using a Tecan plate reader. BG denotes background.
In this assay the mouse macrophage RAW264.7 cell line is transfected with an NFkB-luciferase reporter construct and then cells are stimulated by exposure to bacterial LPS and light emission is measured after addition of luciferase substrate.

[5] = system: OCI-LY3 (MyD88 L265P) cells; assay: Proliferation of lymphoma cells (Promega CellTiter viability assay); format: cell-based, human; conditions: 48 h; compared with OCI-LY19 (MyD88 WT)
Description: FIGS. 18A and 18B. 4×4MyDI and Myr-4×4MyDI block proliferation of Ly3 lymphoma cells that carry the L265P oncogenic mutation in MyD88. Cell lines OCI-LY3 (MyD88^L265P) and OCI-LY19 (MyD88^WT) were grown in RPMI supplemented with 10% FCS. Cells were counted and plated at identical concentrations in triplicate wells of 96 well plates and decreasing concentrations of 4×4MyDI […], or Myr-4×4MyDI (19B), was added to the wells. After 48 h cell viability was tested using the Promega CellTiter viability assay according to the manufacturer's instructions. Percent inhibition was calculated as [(1-OD of well with inhibitor/OD of well without inhibitor)*1001. Negative values in A represent enhanced growth in the presence of the inhibitor.
Genomic DNA was prepared from the human lymphoma cell lines OCI-LY3 (MyD88^L265P) and OCI-LY19 (MyD88^WT) to confirm the presence of the activating L265P mutation in the OCI-Ly3 cells (and the WT sequence in the OCI-Ly19 cells). The MyD88 region was amplified using the forward and reverse primers GGGATATGCTGAACTAAGTTGCCAC (SEQ ID NO: 7) and GACGTGTCTGTGAAGTTGGCATCTC (SEQ ID NO: 8), respectively, as described in Xu, L. et al Blood (2013) 121(11): 2051-2058. The PCR product was sequenced to confirm the mutation.
The cell lines were incubated alone or with increasing concentrations of the 4×4MyDI. […]

## CC(C)C[C@@H]1NC(=O)[C@H](C(C)C)NC(=O)[C@H](CC(=O)O)NC(=O)[C@H](CCCNC(=N)N)NC(=O)CN(C(=O)[C@@H](N)Cc2c[nH]c3ccccc23)CCCCNC(=O)NCCCCN(CC(=O)NCC(=O)N[C@H](C(N)=O)[C@@H](C)O)C1=O [4×4MyDI] (H-W[Nlys]RDVL[Nlys]GT-NH2; linker 2-7 via CO; N-terminus assumed)
[1]
  MyD88 inhibitory activity (reduction in TNFα production): intermediate activity
[2]; HeLa cells, IL-1β
  NFκB activation by IL-1β: blocked
[2]; HeLa cells, IL-1β (MyD88 dependent)
  Percent p65 nuclear translocation, IL-1β: 27%
[2]; HeLa cells, TNFα
  NFκB activation by TNFα: not inhibited
[2]; HeLa cells, TNFα (MyD88 independent)
  Percent p65 nuclear translocation, TNFα: 97%
[2]; HeLa cells, no stimulation
  Percent p65 nuclear translocation, No stimulation: 0%
[2]; IL-1β versus TNFα
  specificity of MyD88 inhibition: specific inhibitor
[3]
  IFNγ produced by T cells responding to MOG35-55: complete inhibition
  IL-17 produced by T cells responding to MOG35-55: complete inhibition
[4]
  block of NFkB activation: block NFkB activation in a dose dependent manner
[5]
  proliferation of OCI-Ly3 cells: specifically blocked proliferation
